Literature values in US11260068B2, “Long-circulating liposome modified with c(RGD-ACP-K)” (BEIJING GREATSUN BIO-PHARM. TECH. CO., LTD, priority 2017, dated 2022).
Entries after “also recorded” stand apart in the source; their conditions may differ. Starred links: 1 amine or outer side, 2 acyl side, 3 side chain; linkers in the order of their positions; H or OH if unused. Non-standard residues stand in square brackets, D forms with d. Residues, ends and D or L forms follow the SMILES beside them. X1 = O=C(C1CCC(N[*:1])C1)[*:2]

Target: T1, integrin αvβ3 on the surface of U87MG cells (Homo sapiens, UniProt P05106+P06756)
T1 construct: U87MG glioblastoma cells expressing integrin αvβ3; endogenous in cells; host or cells: U87MG glioblastoma cells
T1 sequence (P06756 31-889 limits assumed): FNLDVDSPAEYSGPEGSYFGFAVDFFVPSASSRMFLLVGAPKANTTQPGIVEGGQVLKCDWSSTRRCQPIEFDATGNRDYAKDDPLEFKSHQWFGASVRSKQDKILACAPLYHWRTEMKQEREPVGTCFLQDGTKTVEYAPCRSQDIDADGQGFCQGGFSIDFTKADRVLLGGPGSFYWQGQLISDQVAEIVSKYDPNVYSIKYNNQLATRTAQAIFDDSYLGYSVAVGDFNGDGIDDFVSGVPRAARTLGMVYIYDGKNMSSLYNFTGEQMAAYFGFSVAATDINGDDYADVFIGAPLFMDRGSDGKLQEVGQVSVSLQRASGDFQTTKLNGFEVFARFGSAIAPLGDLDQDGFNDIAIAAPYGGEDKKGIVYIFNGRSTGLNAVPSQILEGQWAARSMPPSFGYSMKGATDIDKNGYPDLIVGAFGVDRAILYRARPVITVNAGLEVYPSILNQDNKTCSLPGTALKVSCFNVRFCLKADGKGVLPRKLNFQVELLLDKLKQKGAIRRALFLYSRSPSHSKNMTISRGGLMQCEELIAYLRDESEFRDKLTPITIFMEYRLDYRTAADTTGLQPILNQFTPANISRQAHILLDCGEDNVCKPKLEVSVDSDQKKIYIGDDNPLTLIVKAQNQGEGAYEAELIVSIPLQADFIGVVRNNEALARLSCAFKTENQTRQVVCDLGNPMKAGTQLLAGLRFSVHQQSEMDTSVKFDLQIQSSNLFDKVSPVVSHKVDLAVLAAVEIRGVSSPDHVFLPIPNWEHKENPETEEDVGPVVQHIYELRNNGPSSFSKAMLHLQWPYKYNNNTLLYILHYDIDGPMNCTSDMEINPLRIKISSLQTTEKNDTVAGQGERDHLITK
T1 sequence (P06756 891-1048 partner limits assumed): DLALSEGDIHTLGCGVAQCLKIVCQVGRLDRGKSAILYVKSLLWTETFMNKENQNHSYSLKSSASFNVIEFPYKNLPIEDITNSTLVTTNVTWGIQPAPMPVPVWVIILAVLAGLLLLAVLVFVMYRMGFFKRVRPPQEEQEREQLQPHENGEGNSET
T1 sequence (P05106 27-788): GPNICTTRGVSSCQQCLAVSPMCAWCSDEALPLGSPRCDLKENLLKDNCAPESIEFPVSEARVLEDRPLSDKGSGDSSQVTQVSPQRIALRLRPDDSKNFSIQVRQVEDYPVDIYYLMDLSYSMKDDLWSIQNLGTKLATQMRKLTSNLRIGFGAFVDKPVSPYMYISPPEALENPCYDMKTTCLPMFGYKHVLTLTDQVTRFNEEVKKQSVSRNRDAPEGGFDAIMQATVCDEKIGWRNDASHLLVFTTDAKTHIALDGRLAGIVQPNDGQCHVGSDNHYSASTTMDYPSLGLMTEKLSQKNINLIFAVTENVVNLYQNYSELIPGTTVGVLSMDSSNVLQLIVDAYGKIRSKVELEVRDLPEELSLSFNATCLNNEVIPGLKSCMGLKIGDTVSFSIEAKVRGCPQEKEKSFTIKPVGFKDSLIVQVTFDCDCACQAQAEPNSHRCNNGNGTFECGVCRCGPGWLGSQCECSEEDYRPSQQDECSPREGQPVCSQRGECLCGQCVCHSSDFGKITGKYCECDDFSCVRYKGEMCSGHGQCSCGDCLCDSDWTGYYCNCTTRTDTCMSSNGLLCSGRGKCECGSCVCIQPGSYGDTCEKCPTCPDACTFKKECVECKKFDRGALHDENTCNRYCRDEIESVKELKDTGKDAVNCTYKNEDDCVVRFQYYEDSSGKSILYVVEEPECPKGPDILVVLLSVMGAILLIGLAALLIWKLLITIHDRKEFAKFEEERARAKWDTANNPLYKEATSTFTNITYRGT
Settings: reference c(RGDyK)

cyclic [c(RGD-ACH-K), cyclic [RGD-(1S,3R)-3-aminocyclohexanecarboxylic acid]]
binding to integrin αvβ3 on the surface of U87MG cells: superior to that of the cyclic peptide c(RGDyK)

N=C(N)NCCC[C@@H]1NC(=O)[C@H](CCCCN)NC(=O)C2CCC(C2)NC(=O)[C@H](CC(=O)O)NC(=O)CNC1=O (stereo partly drawn) [c(RGD-ACP-K), cyclo[RGD-(1S,3R)-3-aminocyclopentane-1-carboxylic acid]] (cyclo(RGD[X1]K))
binding to integrin αvβ3 on the surface of U87MG cells: superior to that of the cyclic peptide c(RGDyK); also recorded: significantly higher than that of c(RGD-ACH-K)
